Test results from patent US11692028B2, “Map kinase pathway targets for the treatment of Marfan syndrome” (The Johns Hopkins University, priority 2017, dated 2023).

Key:
[1] = tested on: TGFβ induction in vascular tissues; conditions: literature; cited from earlier work
[2] = tested on: pSmad2, pErk1/2, pp38, pEgfr; assay: Western blot analysis of the aortic root of treated 129 MFS mice; assay type: in vivo, mouse; conditions: for signaling cascade activation in aortic root (Western blot): treated 129 MFS mice at 4 months of age, FIG. 2E, 3G
Method: Losartan was dissolved in drinking water and filtered to reach a concentration of 0.6 g/L, giving an estimated daily dose of 60 mg/kg/day, as described previously (Habashi, J. P. et al. Science 312, 117-21 (2006)). Mice were started on losartan at 2 months of age and continued for 8 months. Placebo-treated animals received regular drinking water. RDEA119 was reconstituted in 10% 2-hydroxypropyl-beta-cyclodextrin (Sigma-Aldrich, Mo., USA) dissolved in PBS, and administered twice daily by oral gavage at a dose of 25 mg/kg, as described previously (Holm, T. M. et al. Science 15, 358-61 (2011)). Treatment was initiated at 2 months of age and continued for 2 months. 10% 2-hydroxypropyl-beta-cyclodextrin dissolved in PBS was administered as a control. Erlotinib was reconstituted in 1% methylcellulose (Sigma-Aldrich) dissolved in PBS, and administered daily by oral gavage at a dose of 50 mg/kg. Treatment was initiated at 2 months of age and continued for 2 months. 1% methylcellulose dissolved in PBS was administered as a control. Mice that were sacrificed for Western Blot analysis had their proximal ascending aortas immediately dissected, flash frozen in liquid nitrogen and stored at -80° C. until further processing. Protein was extracted using the reagents and protocol from a Total Protein Extraction Kit containing protease inhibitor and Protein Phosphatase Inhibitor Cocktail (Millipore, Mass., USA). Aortas were homogenized using a pellet pestle motor (Kimble-Kontes, N.J., USA) as per the extraction kit protocol. Samples were then stored once more at -80° C. until Western blot analysis was performed. […] PBS-T). Equal protein loading of samples was determined by a protein assay (Bio-Rad, Calif., USA) and confirmed by probing with an antibody against β-Actin (Sigma-Aldrich #A5316). […] Blots were then washed in PBS-T, developed using SuperSignal West Femto HRP substrate (Pierce Scientific, Ill., USA), exposed to BioMax Scientific Imaging Film (Sigma), and quantified using ImageJ analysis software (NIH, Md., USA).

[3] = tested on: 129 MFS mice (Fbn1C1039G/+ on 129S6/SvEvTac background); assay: Aortic root growth by echocardiography in drug-treated 129 MFS mice; assay type: in vivo, mouse; conditions: for aortic root growth: FIG. 2B
Method: Losartan was dissolved in drinking water and filtered to reach a concentration of 0.6 g/L, giving an estimated daily dose of 60 mg/kg/day, as described previously (Habashi, J. P. et al. Science 312, 117-21 (2006)). Mice were started on losartan at 2 months of age and continued for 8 months. Placebo-treated animals received regular drinking water. RDEA119 was reconstituted in 10% 2-hydroxypropyl-beta-cyclodextrin (Sigma-Aldrich, Mo., USA) dissolved in PBS, and administered twice daily by oral gavage at a dose of 25 mg/kg, as described previously (Holm, T. M. et al. Science 15, 358-61 (2011)). Treatment was initiated at 2 months of age and continued for 2 months. 10% 2-hydroxypropyl-beta-cyclodextrin dissolved in PBS was administered as a control. Erlotinib was reconstituted in 1% methylcellulose (Sigma-Aldrich) dissolved in PBS, and administered daily by oral gavage at a dose of 50 mg/kg. Treatment was initiated at 2 months of age and continued for 2 months. 1% methylcellulose dissolved in PBS was administered as a control.
Mouse echocardiography: Nair hair removal cream was used on all mice the day prior to echocardiography. All echocardiograms were performed on awake, unsedated mice using the VisualSonics Vevo 2100 imaging system and a 30 MHz transducer (Fujifilm VisualSonics, ON, Canada). The aorta was imaged using a parasternal, long-axis view. Three separate measurements of the maximal internal dimension at the sinus of Valsalva and proximal ascending aorta were made from distinct captured images and averaged. All imaging and measurements were performed blinded to genotype and treatment arm.

[4] = tested on: TGFβ signal transduction (p-SMAD2); conditions: measured by p-SMAD2 western blot analysis; cited from earlier work
[5] = tested on: Fbn1C1039G/+ mice (MFS mice); conditions: cited from earlier work; for aortic disease in MFS mice: literature (Habashi 2006; Holm 2011; Habashi 2011; Doyle 2015)
patients with MFS = conditions: literature (Lacro et al., NEJM 371, 2061); cited from earlier work
[6] = tested on: 129 MFS mice (Fbn1C1039G/+ on 129S6/SvEvTac background); assay: Survival / premature lethality from aortic dissection in 129 MFS mice; assay type: in vivo, mouse; conditions: losartan, up to 8 months of treatment, FIG. 2C
From the text: Mice were cared for under compliance with the Animal Care and Use Committee of the Johns Hopkins University School of Medicine. Fbn1^C1039G/+ mice on a pure C57BL/6J background were already onsite. Mice on a pure 129S6/SvEvTac background were obtained from Taconic Biosciences (Rensselaer County, N.Y., USA). The Fbn1^C1039G/+ mice on a pure C57BL/6J background were bred into a pure 129S6/SvEvTac background and backcrossed for >10 generations. Mice haploinsufficient or knockout for Mmp17 (B6.129P2-Mmp17^rm1Dg^en/J; #005824), Map2k6 (B6.129S1-Map2k6^tm1Flv/J; #008382) and Map3k4 (B6.129S6-Map3k4^tm1Flv/J; #008375) were obtained from the Jackson Laboratory (Bar Harbor, Me., USA), and bred to Fbn1C1039G/+ mice. Animals were checked daily for death and all mice found dead were immediately autopsied to assess for evidence of aortic dissection. Mice that were sacrificed were done so using a lethal dose of ketamine and acepromazine (1 ml of 10 mg/ml acepromazine in 10 mls of 100 mg/ml ketamine; MWI Vet, ID, USA). At the time of sacrifice, mice underwent immediate laparotomy and descending abdominal aortic transection. Phosphate buffered saline (PBS) was infused through the right and left ventricles to flush out the blood. […]

[7] = oral gavage from 2 to 4 months of age (RDEA119 25 mg/kg twice daily; erlotinib 50 mg/kg daily), 3F

Row | SMILES | signaling cascade activation in aortic root (Western blot) [2] | aortic root growth [3, 7] | aortic disease in MFS mice [5] | all aortic parameters (aortic root size, post-natal aortic root growth, premature lethality from dissection) [3] | other results
1 | C#Cc1cccc(Nc2ncnc3cc(OCCOC)c(OCCOC)cc23)c1 [erlotinib] | reduced activation of Egfr, Erk1/2, and p38 | abrogated aortic root growth | – | – | Ang-II infusion-mediated TGFβ induction in vascular tissues [1]: can abrogate Ang-II infusion-mediated TGFβ induction in vascular tissues
2 | Fc1ccc(Cl)cc1-c1nc(Nc2ccncc2)c2nccnc2n1 [SD-208] | – | – | – | – | TGFβ signal transduction [4]: inhibits TGFβ signal transduction in a dose-dependent fashion
3 | COc1cc(F)c(F)c(Nc2ccc(I)cc2F)c1NS(=O)(=O)C1(C[C@H](O)CO)CC1 [RDEA119] | selective reduction in noncanonical (Erk1/2, p38) cascades | reduced aortic root growth to a rate equal to that of WT animals | can suppress aortic disease in MFS mice | fully rescued | –
4 | CCCCc1nc(Cl)c(CO)n1Cc1ccc(-c2ccccc2-c2nn[nH]n2)cc1 [losartan] | – | – | can suppress aortic disease in MFS mice | fully rescued | multiple phenotypic manifestations (aortic aneurysm, developmental emphysema, mitral valve disease, skeletal muscle myopathy) ([5]; Fbn1C1039G/+ mice, in association with blunted Smad2/3 activation, literature): can be attenuated; aortic root growth in patients with MFS (patients with MFS): some degree of rescue of aortic root growth; premature lethality (survival) [6]: ameliorated premature lethality; TGFβ signaling cascades in aortic root (Western blot) ([2]; losartan-treated 129 MFS mice at 10 months of age, FIG. 2D): reduction in both canonical (Smad2) and noncanonical (Erk1/2, p38) TGFβ signaling cascades; aortic root growth ([3]; losartan 0.6 g/L in drinking water (est. 60 mg/kg/day), growth from 2 to 6 months): reduced aortic root growth to a rate equal to that of WT animals
